Experimental data reported in patent publication US6737383B1, “Herbicidal oxadiazolidines” (priority 1999, dated 2004).

Columns and labels:
rape = test: Test B pre/postemergence rape; type: in vivo, Brassica napus
Summary of the method: (§1)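 Test chemicals in a non-phytotoxic solvent mixture with surfactant were sprayed preemergence onto planted seeds and postemergence onto plants 2 to 18 cm tall (1- to 4-leaf stage). After twelve to sixteen days in a greenhouse, injury was visually rated against untreated controls from 0 (no effect) to 10 (complete control).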

winter wheat [1] = test: Test E winter wheat; type: in vivo, Triticum aestivum; conditions: Postemergence
Procedure: […] All plant species were grown using normal greenhouse practices. Crop and weed species include annual bluegrass (Poa annua), blackgrass (Alopecurus myosuroides), black nightshade (Solanum nigra), chickweed (Stellaria media), common poppy (Papaver rhoeas), deadnettle (Lamium amplexicaule), downy brome (Bromus tectorum), field violet (Viola arvensis), galium (Galium aparine), green foxtail (Setaria viridis), Italian ryegrass (Lolium multiflorum), jointed goatgrass (Aegilops cylindrica), kochia (Kochia scoparia), lambsquarters (Chenopodium album), littleseed canarygrass (Phalaris minor), rape (Brassica napus), redroot pigweed (Amaranthus retroflexus), Russian thistle (Salsola kali), scentless chamomile (Matricaria inodora), spring barley (Hordeum vulgare), sugar beet (Beta vulgaris), sunflower (Helianthus annuus), ivyleaf speedwell (Veronica hederaefolia), spring wheat (Triticum aestivum), winter wheat (Triticum aestivum), wild buckwheat (Polygonum convolvulus), wild mustard (Sinapis arvensis), wild oat (Avena fatua), windgrass (Apera spica-venti) and winter barley (Hordeum vulgare).
Treated plants and untreated controls were maintained in a greenhouse for approximately 21 to 28 days, after which all treated plants were compared to untreated controls and visually evaluated. […] A dash response (-) means no test result.

wild oat = test: Test E wild oat; type: in vivo, Avena fatua; conditions: Preemergence, 0 to 100 scale where 0 is no effect and 100 is complete control
green foxtail = test: Test E green foxtail; type: in vivo, Setaria viridis; conditions: Preemergence
Italian ryegrass = test: Test E Italian ryegrass; type: in vivo, Lolium multiflorum; conditions: Preemergence
winter wheat [2] = test: Test E winter wheat; type: in vivo, Triticum aestivum; conditions: Preemergence
winter barley = test: Test E winter barley; type: in vivo, Hordeum vulgare; conditions: Preemergence
velvetleaf = test: Test B pre/postemergence velvetleaf; type: in vivo, Abutilon theophrasti
Summary of the method: as §1

wheat = test: Test B pre/postemergence wheat; type: in vivo, Triticum aestivum
Summary of the method: as §1

blackgrass = test: Test E blackgrass; type: in vivo, Alopecurus myosuroides; conditions: Preemergence
bamyardgrass = test: Test B flood test barnyardgrass; type: in vivo, Echinochloa crus-galli
Summary of the method: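 Read-out is a visual response score from 0 (no effect) to 10 (complete control), assigned by comparison with untreated controls. Treatment was applied at the 2-leaf stage, and plants stayed in the greenhouse for twelve to sixteen days before scoring.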

[3] = Postemergence, Rate 62 g/ha, scale 0 to 10, 0 is no effect, 10 is complete control
[4] = Postemergence, Rate 250 g/ha, scale 0 to 10, 0 no effect, 10 complete control
[5] = Preemergence, Rate 62 g/ha, scale 0 to 10, 0 is no effect, 10 is complete control
[6] = Preemergence, Rate 125 g/ha, scale 0 to 10 (0 no effect, 10 complete control)
[7] = Preemergence, Rate 250 g/ha, scale of 0 to 10 where 0 is no effect and 10 is complete control
[8] = Preemergence, Rate 500 g/ha, scale 0 (no effect) to 10 (complete control)
[9] = Rate 125 g/ha, Postemergence, scale 0 to 10, 0 no effect, 10 complete control
[10] = Rate 500 g/ha, 0 to 100 scale where 0 is no effect and 100 is complete control
[11] = Rate 1000 g/ha, 0 to 100 scale where 0 is no effect and 100 is complete control
[12] = Postemergence, Rate 125 g/ha, scale of 0 to 10 where 0 is no effect and 10 is complete control
[13] = Preemergence, Rate 62 g/ha, scale of 0 to 10 where 0 is no effect and 10 is complete control
[14] = Preemergence, Rate 125 g/ha, scale of 0 to 10 where 0 is no effect and 10 is complete control
[15] = Preemergence, Rate 250 g/ha, scale 0 to 10 (0 no effect, 10 complete control)
[16] = Preemergence, Rate 500 g/ha, scale of 0 to 10 where 0 is no effect and 10 is complete control
[17] = Rate 500 g/ha, Postemergence, scale 0 to 10, 0 is no effect, 10 is complete control
[18] = Rate 250 g/ha, Pre-emergence (flood test species), scale 0 to 10, 0 is no effect, 10 is complete control
[19] = Rate 500 g/ha, Pre-emergence section of Table B, 0 to 10 scale (0 no effect, 10 complete control)
[20] = Preemergence, Rate 250 g/ha, scale 0 (no effect) to 10 (complete control)
[21] = Rate 62 g/ha, Preemergence, scale 0 to 10
[22] = Rate 250 g/ha, Postemergence, scale 0 to 10, 0 is no effect, 10 is complete control
[23] = Pre-emergence, Rate 62 g/ha, scale 0 to 10, 0 is no effect, 10 is complete control
[24] = Rate 125 g/ha, Pre-emergence section (flood test species), scale 0 to 10, 0 no effect, 10 complete control
[25] = Rate 500 g/ha, Preemergence, scale 0 to 10 (0 no effect, 10 complete control)

## Cc1ccc(N(C(=O)n2oc(=O)n(-c3ccccc3C)c2=O)C(C)C)cc1 [Compound 40]
rape; [3]
  Rape plant response rating: 0
rape; [4]
  Rape plant response rating: 0
rape; [5]
  Plant response rating, Rape: 0
rape; [6]
  Plant response rating, Rape: 0
rape; [7]
  Plant response rating, Rape: 0
rape; [8]
  Rape plant response rating: 0
rape; [9]
  Rape plant response rating: 0
rape; Rate 500 g/ha, Postemergence, 0 to 10 scale (0 no effect, 10 complete control)
  Rape plant response rating: 0
Winter wheat [1]; Rate 250 g/ha, 0 to 100 scale (0 no effect, 100 complete control)
  Plant response rating, Wheat (winter): 0
Winter wheat [1]; Rate 1000 g/ha, 0 to 100 scale, 0 is no effect and 100 is complete control
  Plant response rating, Wheat (winter): 0
Winter wheat [1]; Rate 500 g/ha, 0 to 100 scale, 0 no effect, 100 complete control
  Plant response rating, Wheat (winter): 0
Wild oat; Rate 500 g/ha
  Plant response rating, Wild oat: 50
Wild oat; Rate 1000 g/ha
  Plant response rating, Wild oat: 60
Green foxtail; Rate 250 g/ha, 0 to 100 scale
  Plant response rating, Green foxtail: 70
Green foxtail; [10]
  Plant response rating, Green foxtail: 90
Green foxtail; [11]
  Plant response rating, Green foxtail: 90
Italian ryegrass; Rate 250 g/ha, 0 to 100 scale
  Plant response rating, I. Ryegrass: 30
Italian ryegrass; [10]
  Plant response rating, I. Ryegrass: 70
Italian ryegrass; [11]
  Plant response rating, I. Ryegrass: 70
Winter wheat [2]; Rate 250 g/ha, 0 to 100 scale
  Plant response rating, Wheat (winter): 20
Winter wheat [2]; [10]
  Plant response rating, Wheat (winter): 30
Winter wheat [2]; [11]
  Plant response rating, Wheat (winter): 40
Winter barley; Rate 250 g/ha, 0 to 100 scale
  Plant response rating, Barley (winter): 30
Winter barley; [10]
  Plant response rating, Barley (winter): 40
Winter barley; [11]
  Plant response rating, Barley (winter): 50
velvetleaf; [3]
  Velvetleaf plant response rating: 0
velvetleaf; [4]
  Velvetleaf plant response rating: 0
velvetleaf; [5]
  Plant response rating, Velvetleaf: 0
velvetleaf; [6]
  Plant response rating, Velvetleaf: 0
velvetleaf; [7]
  Plant response rating, Velvetleaf: 0
velvetleaf; [8]
  Velvetleaf plant response rating: 0
velvetleaf; [9]
  Velvetleaf plant response rating: 0
wheat; [3]
  Wheat plant response rating: 0
wheat; [4]
  Wheat plant response rating: 0
wheat; [5]
  Plant response rating, Wheat: 0
wheat; [6]
  Plant response rating, Wheat: 0
wheat; [7]
  Plant response rating, Wheat: 0
wheat; [8]
  Wheat plant response rating: 0
wheat; [9]
  Wheat plant response rating: 0
blackgrass; Rate 250 g/ha, 0 to 100 scale
  Plant response rating, Blackgrass: 40
blackgrass; [10]
  Plant response rating, Blackgrass: 60
blackgrass; [11]
  Plant response rating, Blackgrass: 70

## CC(C)N(C(=O)n1oc(=O)n(CCF)c1=O)c1ccc(Cl)cc1 [Compound 668]
rape; [3]
  Plant response rating, Rape: 2
rape; [12]
  Rape plant response rating: 3
rape; [13]
  Rape plant response rating: 0
rape; [14]
  Rape plant response rating: 5
rape; [15]
  Plant response rating, Rape: 8
rape; [16]
  Plant response rating, Rape: 9
rape; [17]
  Rape plant response rating: 4
bamyardgrass; Rate 62 g/ha, flood test species, Pre-emergence, visual evaluation after twelve to sixteen days
  Plant response rating, Barnyardgrass (0 to 10 scale, 0 is no effect, 10 is complete control): 0
bamyardgrass; Rate 125 g/ha, under heading Pre-emergence, flood test species, visual evaluation after twelve to sixteen days
  Barnyardgrass plant response rating (0 to 10 scale, 0 is no effect, 10 is complete control): 0
bamyardgrass; [18]
  Barnyardgrass plant response rating: 0
bamyardgrass; [19]
  Barnyardgrass plant response rating: 0
velvetleaf; [3]
  Plant response rating, Velvetleaf: 0
velvetleaf; [12]
  Velvetleaf plant response rating: 0
velvetleaf; [13]
  Velvetleaf plant response rating: 3
velvetleaf; [14]
  Velvetleaf plant response rating: 6
velvetleaf; [15]
  Plant response rating, Velvetleaf: 7
velvetleaf; [16]
  Plant response rating, Velvetleaf: 8
velvetleaf; [17]
  Velvetleaf plant response rating: 7
wheat; [3]
  Plant response rating, Wheat: 0
wheat; [12]
  Wheat plant response rating: 0
wheat; [13]
  Wheat plant response rating: 0
wheat; [14]
  Wheat plant response rating: 0
wheat; [15]
  Plant response rating, Wheat: 5
wheat; [16]
  Plant response rating, Wheat: 7
wheat; [17]
  Wheat plant response rating: 0

## CC(C)N(C(=O)n1oc(=O)n(CC2=NOCCO2)c1=O)c1ccc(Cl)cc1 [Compound 740]
rape; [3]
  Plant response rating, Rape: 0
rape; [12]
  Rape plant response rating: 0
rape; [14]
  Plant response rating, Rape: 3
rape; [20]
  Rape plant response rating: 5
rape; [21]
  Rape plant response rating: 0
rape; [22]
  Rape plant response rating: 0
rape; [17]
  Rape plant response rating: 0
bamyardgrass; [23]
  Barnyardgrass plant response rating: 0
bamyardgrass; [24]
  Barnyardgrass plant response rating: 0
bamyardgrass; [18]
  Barnyardgrass plant response rating: 0
bamyardgrass; [19]
  Barnyardgrass plant response rating: 0
velvetleaf; [3]
  Plant response rating, Velvetleaf: 0
velvetleaf; [12]
  Velvetleaf plant response rating: 0
velvetleaf; [14]
  Plant response rating, Velvetleaf: 0
velvetleaf; [20]
  Velvetleaf plant response rating: 0
velvetleaf; [21]
  Velvetleaf plant response rating: 0
velvetleaf; [22]
  Velvetleaf plant response rating: 2
velvetleaf; [17]
  Velvetleaf plant response rating: 2
velvetleaf; [25]
  Velvetleaf plant response rating: 3
wheat; [3]
  Plant response rating, Wheat: 0
wheat; [12]
  Wheat plant response rating: 0
wheat; [14]
  Plant response rating, Wheat: 0
wheat; [20]
  Wheat plant response rating: 0
wheat; [21]
  Wheat plant response rating: 0
wheat; [22]
  Wheat plant response rating: 0
wheat; [17]
  Wheat plant response rating: 4
wheat; [25]
  Wheat plant response rating: 3

## CC(C)N(C(=O)n1oc(=O)n(CCN(C)C(=O)c2ccccc2)c1=O)c1ccc(F)cc1 [Compound 741]
rape; [3]
  Plant response rating, Rape: 0
rape; [12]
  Rape plant response rating: 0
rape; [14]
  Plant response rating, Rape: 0
rape; [20]
  Rape plant response rating: 0
rape; [21]
  Rape plant response rating: 0
rape; [22]
  Rape plant response rating: 0
rape; [17]
  Rape plant response rating: 0
rape; [25]
  Rape plant response rating: 0
bamyardgrass; [23]
  Barnyardgrass plant response rating: 0
bamyardgrass; [24]
  Barnyardgrass plant response rating: 0
bamyardgrass; [18]
  Barnyardgrass plant response rating: 0
bamyardgrass; [19]
  Barnyardgrass plant response rating: 0
velvetleaf; [3]
  Plant response rating, Velvetleaf: 0
velvetleaf; [12]
  Velvetleaf plant response rating: 0
velvetleaf; [14]
  Plant response rating, Velvetleaf: 3
velvetleaf; [20]
  Velvetleaf plant response rating: 3
velvetleaf; [21]
  Velvetleaf plant response rating: 0
velvetleaf; [22]
  Velvetleaf plant response rating: 0
velvetleaf; [17]
  Velvetleaf plant response rating: 1
velvetleaf; [25]
  Velvetleaf plant response rating: 3
wheat; [3]
  Plant response rating, Wheat: 0
wheat; [12]
  Wheat plant response rating: 0
wheat; [14]
  Plant response rating, Wheat: 0
wheat; [20]
  Wheat plant response rating: 0
wheat; [21]
  Wheat plant response rating: 0
wheat; [22]
  Wheat plant response rating: 0
wheat; [17]
  Wheat plant response rating: 3
wheat; [25]
  Wheat plant response rating: 4
